Measurements taken from patent publication US4837204A, “Functionalized peptidyl aminodiols and -triols” (Abbott Laboratories, priority 1988, dated 1989).

Molecular target: T1, human renal renin (Homo sapiens, UniProt P00797)
T1 construct: human renal renin, free from acid proteolytic activity; from tissue
T1 sequence (P00797 67-406): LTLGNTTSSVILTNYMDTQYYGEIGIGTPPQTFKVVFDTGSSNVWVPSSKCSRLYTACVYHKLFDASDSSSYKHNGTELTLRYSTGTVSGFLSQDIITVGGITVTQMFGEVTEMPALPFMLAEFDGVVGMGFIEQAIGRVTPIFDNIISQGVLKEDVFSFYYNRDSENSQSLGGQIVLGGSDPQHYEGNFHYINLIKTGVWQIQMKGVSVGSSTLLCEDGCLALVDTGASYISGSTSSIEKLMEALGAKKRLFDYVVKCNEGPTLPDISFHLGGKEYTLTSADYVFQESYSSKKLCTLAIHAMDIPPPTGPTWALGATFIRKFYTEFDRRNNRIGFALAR
Assay: in vitro inhibition of human renal renin (angiotensin I formed measured by radioimmunoassay)
Type: biochemical
Conditions: human renal renin with renin substrate (human angiotensinogen), 37° C., pH 6.0

| IC50 | SMILES |
| --- | --- |
| 4 nM | CC(C)C(=O)N[C@H](C(=O)N[C@@H](Cc1c[nH]cn1)C(=O)N[C@@H](CC1CCCCC1)[C@@H](O)[C@@H](O)CN=[N+]=[N-])[C@@H](C)OCc1ccccc1 [Example 52, Isobutyryl (O-benzyl)Thr-His Amide of (2S,3R,4S)-1-Azido-2,3-dihydroxy-4-amino-5-cyclohexylpentane] |
| 10 nM | COc1ccc(C[C@H](NC(=O)N(C)C)C(=O)N[C@@H](Cc2c[nH]cn2)C(=O)N[C@@H](CC2CCCCC2)[C@@H](O)[C@@H](O)CN=[N+]=[N-])cc1 [Example 69, Dimethylaminocarbonyl (O-methyl)Tyr-His Amide of (2S,3R,4S)-1-Azido-2,3-dihydroxy-4-amino-5-cyclohexylpentane] |
| 0.65 nM | COc1ccc(C[C@H](NC(=O)OC(C)(C)C)C(=O)N[C@@H](Cc2c[nH]cn2)C(=O)N[C@@H](CC2CCCCC2)[C@@H](O)[C@@H](O)CN=[N+]=[N-])cc1 [Example 19, Boc-(O-methyl)Tyr-His Amide of (2S,3R,4S)-1-Azido-2,3-dihydroxy-4-amino-5-cyclohexylpentane] |
| 10 nM | CCOC(=O)N[C@@H](Cc1ccccc1)C(=O)N[C@@H](CC(C)C)C(=O)N[C@@H](CC1CCCCC1)C(O)C(O)C(O)C(C)C (single isomer, unassigned) [Example 36B] |
| 6 nM | CC(C)CCC(=O)NC[C@H](O)[C@H](O)[C@H](CC1CCCCC1)NC(=O)C(Cc1cc[nH]n1)NC(=O)[C@H](Cc1ccccc1)NC(=O)OC(C)(C)C (stereo partly drawn) [Example 15, Boc-Phe-d,l-3-pyrazolylalanine Amide of (2S,3R,4S)-1-(3-Methylbutylcarbonylamino)-2,3-dihydroxy-4-amino-5-cyclohexylpentane] |
| 1 nM | CC(C)(CC(=O)N[C@@H](Cc1ccccc1)C(=O)N[C@@H](Cc1c[nH]cn1)C(=O)N[C@@H](CC1CCCCC1)[C@@H](O)[C@@H](O)CN=[N+]=[N-])CC(=O)OC(C)(C)C [Example 70, (4-t-Butyloxycarbonyl-3,3-dimethyl)butanoyl-Phe-His Amide of (2S,3R,4S)-1-Azido-2,3-dihydroxy-4-amino-5-cyclohexylpentane] |
| 10 nM | CC(C)CS(=O)(=O)NC[C@H](O)[C@H](O)[C@H](CC1CCCCC1)NC(=O)[C@H](Cc1c[nH]cn1)NC(=O)[C@H](Cc1ccccc1)NC(=O)OC(C)(C)C [Example 16, Boc-Phe-His Amide of (2S,3R,4S)-1-(Isobutylsulfonylamino)-2,3-dihydroxy-4-amino-5-cyclohexylpentane] |
| 10 nM | C[C@H](NC(=O)[C@H](Cc1ccccc1)NC(=O)OC(C)(C)C)C(=O)N[C@@H](CC1CCCCC1)[C@@H](O)[C@@H](O)CN=[N+]=[N-] [Example 20, Boc-Phe-Ala-OH Amide of (2S,3R,4S)-1-Azido-2,3-dihydroxy-4-amino-5-cyclohexylpentane] |
| 50 nM | CCOC(=O)N[C@@H](CC(C)C)C(=O)N[C@@H](CC(C)C)C(=O)N[C@@H](CC1CCCCC1)C(O)C(O)CO (stereo partly drawn) [Example 32, Ethoxycarbonyl-Leu-Leu Amide of (2RS,3RS,4S)-Amino-5-cyclohexyl-1,2,3-trihydroxypentane] |
| 4 nM | CC(C)CCC(=O)NC[C@H](O)[C@H](O)[C@H](CC1CCCCC1)NC(=O)[C@H](Cc1c[nH]cn1)NC(=O)[C@H](Cc1ccccc1)NC(=O)OC(C)(C)C [Example 14, Boc-Phe-His Amide of (2S,3R,4S)-1-(3-Methylbutylcarbonylamino)-2,3-dihydroxy-4-amino-5-cyclohexylpentane] |
| 30 nM | CCOC(=O)N[C@@H](Cc1ccccc1)C(=O)N[C@@H](CC(C)C)C(=O)N[C@@H](CC1CCCCC1)C(O)C(O)C(O)C(C)C (single isomer, unassigned) [Example 36A] |
| 0.4 nM | CC(C)(C)OC(=O)N[C@@H](Cc1ccccc1)C(=O)N[C@@H](Cc1c[nH]cn1)C(=O)N[C@@H](CC1CCCCC1)[C@@H](O)[C@@H](O)CN=[N+]=[N-] [Example 17, Boc-Phe-His Amide of (2S,3R,4S)-1-Azido-2,3-dihydroxy-4-amino-5-cyclohexlpentane] |
| 55 nM | C[C@H](NC(=O)[C@H](Cc1ccccc1)NC(=O)OC(C)(C)C)C(=O)N[C@@H](CC1CCCCC1)[C@@H](O)[C@@H](O)CN [Example 31, Boc-Phe-Ala Amide (4-amino) of (2S,3R,4S)-1,4-Diamino-2,3-dihydroxy-5-cyclohexylpentane] |

| SMILES | IC50 |
| --- | --- |
| COc1ccc(C[C@H](NC(=O)C(C)C)C(=O)N[C@@H](Cc2c[nH]cn2)C(=O)N[C@@H](CC2CCCCC2)[C@@H](O)[C@@H](O)CN=[N+]=[N-])cc1 [Example 47, Isobutyryl (O-methyl)Tyr-His Amide of (2S,3R,4S)-1-Azido-2,3-dihydroxy-4-amino-5-cyclohexylpentane] | 2 nM |
| COc1ccc(C[C@H](NC(=O)N2CCOCC2)C(=O)N[C@@H](Cc2c[nH]cn2)C(=O)N[C@@H](CC2CCCCC2)[C@@H](O)[C@@H](O)CN=[N+]=[N-])cc1 [Example 72, Morpholinocarbonyl (O-methyl)Tyr-His Amide of (2S,3R,4S)-1-Azido-2,3-dihydroxy-4-amino-5-cyclohexylpentane] | 4 nM |
